Assay results reported in ChEMBL document CHEMBL1133918, “Design, synthesis and antiproliferative activity of tripentones: a new series of antitubulin agents” (Bioorg Med Chem Lett, 2001).

What was measured:
[1] = test system: L1210; test: In vitro inhibitory concentration against L1210 leukemia cell line for antiproliferative activity; type: functional, cell-based; conditions: Mus musculus
[2] = test system: L1210; test: Effect in the G2/M phase of L1210 leukemia cell with a significant percentage of cells having 8N DNA content at 5 uM; type: functional, Mus musculus
[3] = test system: L1210; test: Effect in the G2/M phase of L1210 leukemia cell with a significant percentage of cells having 8N DNA content at 0.5 uM; type: functional, Mus musculus
[4] = test system: L1210; test: Effect in the G1 phase of L1210 leukemia cell at 50 uM; type: functional, Mus musculus
[5] = Concentration required to alter the assembly reaction of microtubules without any depolymerization effect; type: functional
[6] = test system: OVCAR-3; test: Tested for antiproliferative activity against Ovcar-3 tumoral cell line; type: functional, cell-based; conditions: Homo sapiens
[7] = test system: A2780; test: Tested for antiproliferative activity against A-2780 tumoral cell line; type: functional, cell-based; conditions: Homo sapiens
[8] = test system: B16; test: Tested for antiproliferative activity against B16 tumoral cell line; type: functional, cell-based; conditions: Mus musculus
[9] = test system: L1210; test: Tested for antiproliferative activity against L1210 tumoral cell line; type: functional, cell-based; conditions: Mus musculus
[10] = test system: NCI-H69; test: Tested for antiproliferative activity against H-69 tumoral cell line; type: functional, cell-based; conditions: Homo sapiens
[11] = test system: P388; test: Tested for antiproliferative activity against P388 tumoral cell line; type: functional, cell-based; conditions: Mus musculus
[12] = test system: KB; test: Tested for antiproliferative activity against KB-A1 tumoral cell line; type: functional, cell-based; conditions: Homo sapiens
[13] = test system: P388/VCR-20; test: Tested for antiproliferative activity against VCR-20 tumoral cell line; type: functional, cell-based; conditions: Mus musculus
[14] = test system: KB 3-1; test: Tested for antiproliferative activity against KB 3-1 tumoral cell line; type: functional, cell-based; conditions: Homo sapiens
[15] = test system: DU-145; test: Tested for antiproliferative activity against DU145 tumoral cell line; type: functional, cell-based; conditions: Homo sapiens
[16] = test system: HCC 2998; test: Tested for cytostatic activity against colon HCC2998 cell line of NCI 60 tumor cell line panel; type: functional; conditions: Homo sapiens
[17] = test system: Hs-578T; test: Tested for cytostatic activity against Breast Hs 578.T cell line of NCI 60 tumor cell line panel; type: functional; conditions: Homo sapiens
[18] = test system: EKVX; test: Tested for cytostatic activity against non small cell lung(NSCL) EKVX cell line of NCI 60 tumor cell line panel; type: functional; conditions: Homo sapiens
[19] = test system: A498; test: Tested for cytostatic activity against Renal A-498 cell line of NCI 60 tumor cell line panel; type: functional; conditions: Homo sapiens
[20] = test system: DU-145; test: Tested for cytostatic activity against Prostate DU-145 cell line of NCI 60 tumor cell line panel; type: functional; conditions: Homo sapiens
[21] = test system: MOLT-4; test: Tested for cytostatic activity against Leukemia MOLT-4 cell line of NCI 60 tumor cell line panel; type: functional; conditions: Homo sapiens
[22] = test system: SF-295; test: Tested for cytostatic activity against Central nervous system SF-295 cell line of NCI 60 tumor cell line panel; type: functional; conditions: Homo sapiens
[23] = test system: OVCAR-3; test: Tested for cytostatic activity against Ovarian OVCAR-3 cell line of NCI 60 tumor cell line panel; type: functional; conditions: Homo sapiens
[24] = test system: SK-MEL-2; test: Tested for cytostatic activity against Melanoma SK-MEL2 cell line of NCI 60 tumor cell line panel; type: functional; conditions: Homo sapiens
[25] = test system: L1210; test: Effect in the G2/M phase of L1210 leukemia cell with a significant percentage of cells having 8N DNA content at 1 uM; type: functional, Mus musculus
[26] = test system: L1210; test: Effect in the G2/M phase of L1210 leukemia cell with a significant percentage of cells having 8N DNA content at 25 uM; type: functional, Mus musculus
[27] = test system: L1210; test: Effect in the G2/M phase of L1210 leukemia cell with a significant percentage of cells having 8N DNA content at 10 uM; type: functional, Mus musculus
[28] = Inhibition of tubulin polymerization; type: functional

Work on `COc1cc(-c2csc3c2-n2cccc2C3=O)cc(OC)c1OC` yielded an IC50 [1] of 36.4 µM.
In the case of `O=C1c2scc(-c3cccc(O)c3)c2-n2cccc21`, the IC50 [1] is reported as 29 µM.
`COc1ccccc1-c1csc2c1-n1cccc1C2=O` gave an Effect [2] of 75% and an IC50 [1] of 18.9 µM.
For `O=C1c2scc(-c3ccc(O)c(O)c3)c2-n2cccc21`, the Effect [3] was 86% and the IC50 [1] was 0.28 µM.
Molecule `Cc1csc2c1-n1cccc1C2=O` has an IC50 [1] of over 100 µM.
In the case of `O=C1c2scc(-c3ccccc3O)c2-n2cccc21`, the Effect [4] is reported as 72% and the IC50 [1] is reported as 3.7 µM.
Molecule `COc1ccc(-c2csc3c2-n2cccc2C3=O)cc1O` has an IC50 [5] of 2.9 µM, an IC50 [6] of 0.031 µM and an IC50 [7] of 0.041 µM. The Effect [3] was 80%, the IC50 [8] was 0.023 µM and the IC50 [9] was 0.015 µM. It also gave an IC50 [10] of 0.036 µM, an IC50 [11] of 0.038 µM and an IC50 [12] of 0.015 µM. The IC50 [13] was 0.021 µM, the IC50 [14] was 0.018 µM and the IC50 [15] was 0.043 µM. It also gave an IC50 [1] of 0.015 µM.
In the case of `O=C1c2scc(-c3ccc(Cl)cc3)c2-n2cccc21`, the GI50 [16] is reported as over 100 µM, the GI50 [17] is reported as 2 µM and the GI50 [18] is reported as 2.51 µM. The GI50 [19] was 1 µM, the GI50 [20] was over 100 µM and the GI50 [21] was 79.4 µM. The GI50 [22] was over 100 µM, the GI50 [23] was over 100 µM and the GI50 [24] was over 100 µM.
In the case of `CCCOc1ccc(-c2csc3c2-n2cccc2C3=O)cc1`, the IC50 [1] is reported as 28.1 µM.
For `CCOc1ccc(-c2csc3c2-n2cccc2C3=O)cc1`, the Effect [25] was 88% and the IC50 [1] was 0.43 µM.
For `O=C1c2sccc2-n2cccc21`, the IC50 [1] was over 100 µM.
`COc1ccc(-c2csc3c2-n2cccc2C3=O)cc1OC` gave an IC50 [1] of 11.7 µM and an Effect [26] of 86%.
With `O=C1c2scc(-c3ccccc3)c2-n2cccc21` the GI50 [16] was 20 µM, the GI50 [17] was 5.01 µM and the GI50 [18] was 5.01 µM. It also gave a GI50 [19] of 1.58 µM, a GI50 [20] of 25.1 µM and a GI50 [21] of 12.6 µM. The GI50 [22] was 20 µM, the GI50 [23] was 15.8 µM and the IC50 [1] was 26.7 µM. The GI50 [24] was 12.6 µM.
Work on `O=C1c2scc(-c3ccc(F)cc3)c2-n2cccc21` yielded a GI50 [16] of 25.1 µM, a GI50 [17] of 20 µM and a GI50 [18] of 25.1 µM. For the same molecule, the GI50 [19] was 1.58 µM, the GI50 [20] was 79.4 µM and the GI50 [21] was 25.1 µM. The GI50 [22] was 25.1 µM, the GI50 [23] was 50.1 µM and the GI50 [24] was 31.6 µM.
In the case of `COc1cc(-c2csc3c2-n2cccc2C3=O)ccc1O`, the IC50 [1] is reported as 8 µM and the Effect [26] is reported as 86%.
With `O=C1c2scc(-c3ccc4c(c3)OCO4)c2-n2cccc21` the Effect [27] was 88% and the IC50 [1] was 4.2 µM.
`CCCCOc1ccc(-c2csc3c2-n2cccc2C3=O)cc1` gave an IC50 [1] of 29.6 µM.
`COc1ccc(-c2csc3c2-n2cccc2C3=O)cc1` showed an Effect [3] of 83%, a GI50 [16] of 0.316 µM and a GI50 [17] of 0.0501 µM. For the same molecule, the GI50 [18] was 0.794 µM, the GI50 [19] was 0.631 µM and the GI50 [20] was 0.158 µM. For the same molecule, the GI50 [21] was 0.0398 µM, the GI50 [22] was 0.0398 µM and the GI50 [23] was 0.0398 µM. The IC50 [1] was 0.19 µM and the GI50 [24] was 0.398 µM.
With `COc1cccc(-c2csc3c2-n2cccc2C3=O)c1` the IC50 [1] was 5.2 µM and the Effect [26] was 94%.
With `O=C1c2scc(-c3ccc(O)cc3)c2-n2cccc21` the IC50 [1] was 30.1 µM.
`COc1cc([C@@H]2c3cc4c(cc3C[C@H]3COC(=O)[C@@H]32)OCO4)cc(OC)c1OC` [DESOXYPODOPHYLLOTOXIN] gave an IC50 [28] of 2.4 µM.
